The supplement of paper PMC10307832

What was measured:
Experiment in all cases: relative viability (nuclei count vs DMSO), 5 days (fraction); higher = more cells survive
[1] = compound: C1/C(=C\C2=CC=CS2)/C(=O)/C(=C/C3=CC=CS3)/C1 + C[C@@H](Oc1cc(-c2cnn(C3CCNCC3)c2)cnc1N)c1c(Cl)ccc(F)c1Cl [Crizotinib] (partner 1 µM)
Outline: (§1)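 Lung cancer cell lines in 1536-well plates got either a single drug or a fixed anchor-drug dose together with five library-drug doses (not always all listed) in √10 steps, by pin tool, on the day after seeding. Nuclei were counted after 5 days, and relative viability is the treated-to-vehicle ratio of nuclei counts. Values are medians of duplicate plates.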

[2] = compound: C1/C(=C\C2=CC=CS2)/C(=O)/C(=C/C3=CC=CS3)/C1 + NC(=O)Nc1cc(-c2cccc(F)c2)sc1C(=O)N[C@H]1CCCNC1 [AZD7762] (partner 0.2 µM)
Outline: as §1

[3] = compound: C1=CC(=CC=C1C2=CC(=C(S2)NC(=O)N)C(=O)N)F [TPCA-1] + CS(=O)(=O)CCNCc1ccc(-c2ccc3ncnc(Nc4ccc(OCc5cccc(F)c5)c(Cl)c4)c3c2)o1 [Lapatinib] (partner 2 µM)
Outline: as §1

[4] = compound: C1/C(=C\C2=CC=CS2)/C(=O)/C(=C/C3=CC=CS3)/C1 + CCNC(=O)c1noc(-c2cc(C(C)C)c(O)cc2O)c1-c1ccc(CN2CCOCC2)cc1 [Luminespib] (partner 0.01 µM)
Outline: as §1

Cell Line | relative viability ([1]; first compound 0.2 µM) | relative viability ([1]; first compound 0.6325 µM) | relative viability ([1]; first compound 2 µM) | relative viability ([1]; first compound 6.325 µM) | relative viability ([1]; first compound 20 µM) | relative viability ([2]; first compound 0.2 µM) | relative viability ([2]; first compound 0.6325 µM) | relative viability ([2]; first compound 2 µM) | relative viability ([2]; first compound 6.325 µM) | relative viability ([2]; first compound 20 µM) | relative viability ([3]; first compound 0.04 µM) | relative viability ([3]; first compound 0.1265 µM) | relative viability ([3]; first compound 0.4 µM) | relative viability ([3]; first compound 1.265 µM) | relative viability ([3]; first compound 4 µM) | relative viability ([4]; first compound 0.2 µM) | relative viability ([4]; first compound 0.6325 µM) | relative viability ([4]; first compound 2 µM) | relative viability ([4]; first compound 6.325 µM) | relative viability ([4]; first compound 20 µM)
NCI-H322M | 0.876 | 1.03 | 0.98 | 0.743 | 0.922 | 0.491 | 0.58 | 0.484 | 0.518 | 0.521 | 0.646 | 0.612 | 0.589 | 0.65 | 0.492 | 0.994 | 0.831 | 0.938 | 0.812 | 0.745
ABC-1 | 1.05 | 1.21 | 1.25 | 1.01 | 0.92 | 1.01 | 1.04 | 0.905 | 0.528 | 1 | 1.19 | 1.06 | 1.22 | 1.21 | 0.854 | 0.33 | 0.853 | 1.04 | 0.428 | 0.521
LK-2 | 0.249 | 0.225 | 0.218 | 0.215 | 0.242 | 0.548 |  | 0.562 | 0.408 | 0.421 | 1.11 | 0.636 | 0.879 | 0.874 | 0.419 | 0.166 | 0.187 | 0.177 | 0.202 | 0.212
NCI-H596 | 1.09 | 0.975 | 1.04 | 0.981 | 0.949 | 1.12 | 1.12 | 1.13 | 0.659 | 1.02 | 1.06 | 1.08 | 1.15 | 1.13 | 1.07 | 1.06 | 1.09 | 1.08 | 0.912 | 0.992
NCI-H2405 | 0.904 | 0.851 | 0.851 | 0.798 | 0.839 | 0.958 | 0.757 | 0.867 | 0.716 | 0.715 | 1.19 | 0.915 | 1.1 |  | 0.949 | 0.818 | 0.773 | 0.743 | 0.673 | 0.675
NCI-H460 | 0.813 | 1.17 | 0.958 |  | 0.835 | 0.684 | 0.595 | 0.634 | 0.618 | 0.609 | 1.26 | 0.982 | 1.12 | 0.9 | 0.335 | 0.0304 | 0.0338 | 0.0299 | 0.02 | 0.0356
NCI-H1755 | 0.867 | 0.896 | 0.822 | 0.704 | 0.831 | 0.551 | 0.421 | 0.436 | 0.426 | 0.335 | 0.991 | 0.984 | 1.02 | 0.898 | 0.689 | 0.51 | 0.402 | 0.642 | 0.341 | 0.274
NCI-H358 | 0.623 | 0.661 | 0.599 | 0.438 | 0.693 | 0.643 | 0.53 | 0.593 | 0.444 | 0.572 | 0.479 | 0.428 | 0.462 | 0.361 | 0.334 | 0.324 | 0.453 | 0.337 |  | 0.341
NCI-H1734 | 0.617 | 0.78 | 0.631 | 0.606 | 0.731 | 0.591 | 0.57 | 0.551 | 0.415 | 0.523 | 1.21 | 0.946 | 1.13 | 1.02 | 0.623 | 0.193 | 0.19 | 0.209 | 0.22 | 0.211
EPLC-272H | 1 | 0.885 | 1.01 | 0.797 | 0.735 | 0.179 | 0.276 | 0.182 | 0.221 | 0.183 | 1.28 | 0.829 | 0.947 | 0.954 | 0.775 | 0.53 | 0.326 | 0.267 | 0.513 | 0.561
NCI-H2126 | 1 | 1.1 | 0.989 | 0.887 | 0.986 | 1.04 | 0.933 | 1.08 | 0.862 | 1 | 0.827 | 0.736 | 0.808 | 0.749 | 0.669 | 0.952 | 0.84 | 0.963 | 0.804 | 0.867
